Legend:
Assay in all cases: Test C postemergence
Type in all cases: in vivo
[1] = system: Italian ryegrass (Lolium multiflorum); details: Lolium multiflorum, post-emergence, 336 h, Postemergence, scale 0 to 100, read-out: Plant response rating, Ryegrass, Italian
In short: (§1)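 After preemergence treatment of seeds in loam-sand soil or foliar treatment at the 1- to 4-leaf stage of plants in peat/vermiculite medium, pots were kept 13-15 days in the greenhouse. Each was then scored visually, 0 meaning no effect and 100 complete control.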

[2] = system: barnyardgrass (Echinochloa crus-galli); details: Echinochloa crus-galli, post-emergence, Postemergence, scale 0 to 100, read-out: Plant response rating, Barnyardgrass
In short: as §1

[3] = system: blackgrass (Alopecurus myosuroides); details: Alopecurus myosuroides, post-emergence, 336 h, Postemergence, scale 0 to 100, read-out: Plant response rating, Blackgrass
In short: as §1

[4] = system: chickweed (common chickweed, Stellaria media); details: Stellaria media, post-emergence, Postemergence, scale 0 to 100, read-out: Plant response rating, Chickweed
In short: as §1

corn (Zea mays) = details: Zea mays, post-emergence, 336 h, Postemergence, scale 0 to 100
In short: as §1

[5] = system: galium (catchweed bedstraw, Galium aparine); details: Galium, post-emergence, 336 h, Postemergence, scale 0 to 100, read-out: Plant response rating, Galium
In short: as §1

[6] = system: giant foxtail (Setaria faberii); details: Setaria faberi, post-emergence, 336 h, Postemergence, scale 0 to 100, read-out: Plant response rating, Foxtail, Giant
In short: as §1

[7] = system: johnsongrass (Sorghum halepense); details: Sorghum halepense, post-emergence, 336 h, Postemergence, scale 0 to 100, read-out: Plant response rating, Johnsongrass
In short: as §1

[8] = system: lambsquarters (Chenopodium album); details: Chenopodium album, post-emergence, 336 h, Postemergence, scale 0 to 100, read-out: Plant response rating, Lambsquarters
In short: as §1

[9] = system: large (Lg) crabgrass (Digitaria sanguinalis); details: Digitaria sanguinalis, post-emergence, 336 h, Postemergence, scale 0 to 100, read-out: Plant response rating, Crabgrass, Large
In short: as §1

[10] = system: morningglory (Ipomoea coccinea); details: Ipomoea, post-emergence, 336 h, Postemergence, scale 0 to 100, read-out: Plant response rating, Morningglory
In short: as §1

[11] = system: oilseed rape (Brassica napus); details: Brassica napus, post-emergence, Postemergence, scale 0 to 100, read-out: Plant response rating, Oilseed Rape
In short: as §1

[12] = system: ragweed (common ragweed, Ambrosia elatior); details: Ambrosia artemisiifolia, post-emergence, 336 h, Postemergence, scale 0 to 100, read-out: Plant response rating, Ragweed
In short: as §1

soybean (Glycine max) = details: Glycine max, post-emergence, Postemergence, scale 0 to 100, read-out: Plant response rating, Soybean
In short: as §1

[13] = system: velvetleaf (Abutilon theophrasti); details: Abutilon theophrasti, post-emergence, Postemergence, scale 0 to 100, read-out: Plant response rating, Velvetleaf
In short: as §1

[14] = system: waterhemp (common waterhemp, Amaranthus rudis); details: Amaranthus tuberculatus, post-emergence, Postemergence, scale 0 to 100, read-out: Plant response rating, Waterhemp
In short: as §1

wild oat (Avena fatua) = details: Avena fatua, post-emergence, Postemergence, scale 0 to 100, read-out: Plant response rating, Oat, Wild
In short: as §1

[15] = system: winter wheat (Triticum aestivum); details: Triticum aestivum, post-emergence, 336 h, Postemergence, scale 0 to 100, read-out: Plant response rating, Wheat
In short: as §1

[16] = system: yellow nutsedge (Cyperus esculentus); details: Cyperus, post-emergence, 336 h, Postemergence, scale 0 to 100, read-out: Plant response rating, Nutsedge, Yellow
In short: as §1

SMILES: N#Cc1cccc(Oc2ncc(Cl)cn2)c1Oc1ccc(Cl)cc1 [Compound 36]
- pest or weed control at 31 g/ha ([1]; 31 g ai/ha): 5%
- pest or weed control at 62 g/ha ([1]; 62 g ai/ha): 10%
- pest or weed control at 125 g/ha ([1]; 125 g ai/ha): 30%
- pest or weed control at 16 g/ha ([2]; 16 g ai/ha): 10%
- pest or weed control at 31 g/ha ([2]; 31 g ai/ha): 10%
- pest or weed control at 62 g/ha ([2]; 62 g ai/ha): 15%
- pest or weed control at 125 g/ha ([2]; 125 g ai/ha): 20%
- pest or weed control at 16 g/ha ([3]; 16 g ai/ha): 5%
- pest or weed control at 31 g/ha ([3]; 31 g ai/ha): 5%
- pest or weed control at 62 g/ha ([3]; 62 g ai/ha): 30%
- pest or weed control at 125 g/ha ([3]; 125 g ai/ha): 30%
- pest or weed control at 16 g/ha ([4]; 16 g ai/ha): 70%
- pest or weed control at 31 g/ha ([4]; 31 g ai/ha): 75%
- pest or weed control at 62 g/ha ([4]; 62 g ai/ha): 80%
- pest or weed control at 125 g/ha ([4]; 125 g ai/ha): 100%
- Corn plant response rating (crop injury, 0 = no effect, 100 = complete kill) at 16 g/ha (corn (Zea mays); 16 g ai/ha): 10%
- Corn plant response rating (crop injury, 0 = no effect, 100 = complete kill) at 31 g/ha (corn (Zea mays); 31 g ai/ha): 15%
- Corn plant response rating (crop injury, 0 = no effect, 100 = complete kill) at 62 g/ha (corn (Zea mays); 62 g ai/ha): 20%
- Corn plant response rating (crop injury, 0 = no effect, 100 = complete kill) at 125 g/ha (corn (Zea mays); 125 g ai/ha): 20%
- pest or weed control at 16 g/ha ([5]; 16 g ai/ha): 80%
- pest or weed control at 31 g/ha ([5]; 31 g ai/ha): 80%
- pest or weed control at 62 g/ha ([5]; 62 g ai/ha): 95%
- pest or weed control at 125 g/ha ([5]; 125 g ai/ha): 95%
- pest or weed control at 16 g/ha ([6]; 16 g ai/ha): 5%
- pest or weed control at 31 g/ha ([6]; 31 g ai/ha): 5%
- pest or weed control at 62 g/ha ([6]; 62 g ai/ha): 10%
- pest or weed control at 125 g/ha ([6]; 125 g ai/ha): 10%
- pest or weed control at 16 g/ha ([7]; 16 g ai/ha): 20%
- pest or weed control at 31 g/ha ([7]; 31 g ai/ha): 30%
- pest or weed control at 62 g/ha ([7]; 62 g ai/ha): 35%
- pest or weed control at 125 g/ha ([7]; 125 g ai/ha): 35%
- pest or weed control at 16 g/ha ([8]; 16 g ai/ha): 90%
- pest or weed control at 31 g/ha ([8]; 31 g ai/ha): 95%
- pest or weed control at 62 g/ha ([8]; 62 g ai/ha): 98%
- pest or weed control at 125 g/ha ([8]; 125 g ai/ha): 100%
- pest or weed control at 16 g/ha ([9]; 16 g ai/ha): 5%
- pest or weed control at 31 g/ha ([9]; 31 g ai/ha): 10%
- pest or weed control at 62 g/ha ([9]; 62 g ai/ha): 10%
- pest or weed control at 125 g/ha ([9]; 125 g ai/ha): 20%
- pest or weed control at 31 g/ha ([10]; 31 g ai/ha): 60%
- pest or weed control at 62 g/ha ([10]; 62 g ai/ha): 65%
- pest or weed control at 125 g/ha ([10]; 125 g ai/ha): 70%
- plant injury at 31 g/ha ([11]; 31 g ai/ha): 85%
- plant injury at 62 g/ha ([11]; 62 g ai/ha): 90%
- plant injury at 125 g/ha ([11]; 125 g ai/ha): 98%
- pest or weed control at 31 g/ha ([12]; 31 g ai/ha): 45%
- pest or weed control at 62 g/ha ([12]; 62 g ai/ha): 40%
- pest or weed control at 125 g/ha ([12]; 125 g ai/ha): 75%
- plant injury at 31 g/ha (soybean (Glycine max); 31 g ai/ha): 25%
- plant injury at 62 g/ha (soybean (Glycine max); 62 g ai/ha): 50%
- plant injury at 125 g/ha (soybean (Glycine max); 125 g ai/ha): 45%
- pest or weed control at 31 g/ha ([13]; 31 g ai/ha): 45%
- pest or weed control at 62 g/ha ([13]; 62 g ai/ha): 70%
- pest or weed control at 125 g/ha ([13]; 125 g ai/ha): 80%
- pest or weed control at 31 g/ha ([14]; 31 g ai/ha): 90%
- pest or weed control at 62 g/ha ([14]; 62 g ai/ha): 100%
- pest or weed control at 125 g/ha ([14]; 125 g ai/ha): 98%
- pest or weed control at 31 g/ha (wild oat (Avena fatua); 31 g ai/ha): 30%
- pest or weed control at 62 g/ha (wild oat (Avena fatua); 62 g ai/ha): 20%
- pest or weed control at 125 g/ha (wild oat (Avena fatua); 125 g ai/ha): 35%
- plant injury at 31 g/ha ([15]; 31 g ai/ha): 0%
- plant injury at 62 g/ha ([15]; 62 g ai/ha): 0%
- plant injury at 125 g/ha ([15]; 125 g ai/ha): 5%
- pest or weed control at 31 g/ha ([16]; 31 g ai/ha): 5%
- pest or weed control at 62 g/ha ([16]; 62 g ai/ha): 10%
- pest or weed control at 125 g/ha ([16]; 125 g ai/ha): 15%

Reference: patent US20170190671A1, “BIS(ARYL)CATECHOL DERIVATIVES AS HERBICIDES” (E I DU PONT DE NEMOURS AND COMPANY, priority 2014, published 2017)
